In US20060128729A1, “Novel bicyclic heterocyclic compounds, process for their preparation and compositions containing them” (priority 2004, published 2006):
Structures can show the parent of a compound that is named as a salt. Where two headings read alike, the source gives them in different places.

Key:
[1] = system: VCAM-1 (vascular cell adhesion molecule-1); assay: VCAM-1 ELISA on cell layers of stimulated human aortic endothelial cells; assay type: cell-based; conditions: HAECs treated with TNFα (0.05 ng/ml) or glycated human serum albumin (300 μg/ml) for 18-24 h, read-out: IC50 in VCAM-1 enzyme-linked immunosorbent assay
Method: (§1) For inflammation assays, human aortic endothelial cells (HAECS) in 96 well plates were washed once with treatment medium (basal medium containing 1% FBS). Cells were treated with an inflammatory agent such as TNFα (0.05 ng/ml) or glycated human serum albumin (US Biologicals) as source of advanced glycation end products (AGEs) (300 μg/ml) for 18-24 h in the presence or absence of specified amount of compound. Cell supernatants were collected and used for the estimation of MCP-1 (monocyte chemoattractant protein 1) or IL-6 (interleukin-6) by ELISA. Cell layers were washed and used for determining the levels of vascular cell adhesion molecule-1 (VCAM-1).
The cells were fixed cells with 100% methanol for 10 min at room temperature. The methanol was removed and the plate was air-dried. 100 ul of 1:1000 diluted primary antibody (polyclonal goat anti-human VCAM-1—R&D Systems #BBA19) was then added and incubated for 2 h at 37 C. The cells were washed with PBS and 100 ul of 1:5000 dilution of secondary antibody (rabbit anti-goat IgG-HRP—Zymed #81-1620) was added and incubated for 1 h at room temperature. Cells were washed and 100 ul of substrate solution (R&D Systems# DY999) was added and incubated for 20 min in the dark at room temp. 50 μl of stop solution (2N sulfuric acid) was added to the wells and absorbency at 450 nm was noted.

[2] = system: MCP-1 (monocyte chemoattractant protein 1); assay: MCP-1 ELISA on supernatants of stimulated human aortic endothelial cells; assay type: cell-based; conditions: HAECs treated with TNFα (0.05 ng/ml) or glycated human serum albumin (300 μg/ml) for 18-24 h, read-out: IC50 in MCP-1 enzyme-linked immunosorbent assay
Method: as §1
MCP-1 ELISA was carried out using Quantikine Human MCP-1 kit as described by the manufacturer (R&D Systems, Inc.). Mouse anti-human MCP-1 was used as the capture antibody and HRP (horse radish peroxidase)-conjugated goat anti-human MCP-1 antibody was used as detection antibody. Culture medium was incubated with the capture antibody (in 96-well plate) for 2 h at room temperature. Wells were washed three times with wash buffer (0.05% Tween-20 in PBS) followed by incubation with detection antibody for 2 h at room temperature. Color development was read at […] in a microplate reader.

[3] = system: human aortic smooth muscle cells; assay: Smooth muscle cell proliferation assay (radiolabeled thymidine incorporation or CellTiter AQ); assay type: cell-based; conditions: human aortic SMC; for IC50: 24 h post treatment in serum-containing growth medium, read-out: Activity: concentration giving 50% inhibition of smooth muscle cell proliferation; for inhibition at 1 µM: 24 h post treatment
Method: Primary cultures of human aortic smooth muscle cells were obtained from Clonetics. SMC were initially grown in T-75 flasks prior to seeding in 96 well plates. The 96-well plates were seeded with 4000 cells/well. The following day cells were washed with serum free medium and left in serum free media for 24 hours for serum starvation. The next day cells received growth medium containing serum with or without compound. 24 h post treatment cell proliferation was assayed either assessing the incorporation of radiolabeled thymidine to DNA or using a non-radioactive cell proliferation kit from Promega (CellTiter AQ).

| SMILES | melting point [°C] | IC50 ([2]; Homo sapiens, Endothelial cell) [µM] | IC50 [3] [µM] | also measured |
| --- | --- | --- | --- | --- |
| CNC(=O)c1cccc(Nc2nc(-c3ccc(F)cc3)nc3c(C)nn(C)c23)c1.Cl [E 50, 3-[5-(4-fluoro-phenyl)-1,3-dimethyl-1H-pyrazolo[4,3-d]pyrimidin-7-ylamino]-N-methyl-benzamide hydrochloride] | 272 to 274 | 0.42 | – | IC50 ([1]; Homo sapiens, Endothelial cell): 1.68 µM |
| Cc1nn(C)c2c(Nc3ccc4c(c3)OCO4)nc(-c3cccs3)nc12 [E 33, benzo[1,3]dioxol-5-yl-(1,3-dimethyl-5-thiophen-2-yl-1H-pyrazolo[4,3-d]pyrimidin-7-yl)-amine hydrochloride] | – | – | 0.54 | – |
| CCCc1nn(C)c2c(Nc3ccc4c(c3)OCO4)nc(-c3cccs3)nc12 [E 52, benzo[1,3]dioxol-5-yl-(1-methyl-3-propyl-5-thiophen-2-yl-1H-pyrazolo[4,3-d]pyrimidin-7-yl)-amine hydrochloride] | – | 8.7 | 0.5 | IC50 ([1]; Homo sapiens, Endothelial cell): 10.9 µM |
| CCCc1nn(C)c2c(Nc3ccc(OC)c(F)c3)nc(-c3ccc(F)cc3)nc12 [E 86, (3-fluoro-4-methoxy-phenyl)-[5-(4-fluoro-phenyl)-1-methyl-3-propyl-1H-pyrazolo[4,3-d]pyrimidin-7-yl]-amine] | – | – | – | IC50 [1]: 12.7 µM; IC50 [2]: 9 µM |
| COc1ccc(Nc2nc(-c3ccc(F)cc3)nc3c(C)nn(C)c23)cc1F.Cl [E 16, (3-fluoro-4-methoxy-phenyl)-[5-(4-fluoro-phenyl)-1,3-dimethyl-1H-pyrazolo[4,3-d]pyrimidin-7-yl]-amine hydrochloride] | 262 | – | – | inhibition at 1 µM [3]: 100% |
| Cc1nn(C)c2c(Nc3ccc(S(N)(=O)=O)cc3)nc(-c3ccccc3)nc12 [E 44, 4-(1,3-dimethyl-5-phenyl-1H-pyrazolo[4,3-d]pyrimidin-7-ylamino)-benzenesulfonamide hydrochloride] | – | – | 2.5 | – |
| CCCc1nn(C)c2c(Nc3ccc4c(c3)OCO4)nc(-c3ccc(F)cc3)nc12.Cl [E 8, benzo[1,3]dioxol-5-yl-[5-(4-fluoro-phenyl)-1-methyl-3-propyl-1H-pyrazolo[4,3-d]pyrimidin-7-yl]-amine-hydrochloride] | < 260 | 8.7 | 1 | IC50 ([1]; Homo sapiens, Endothelial cell): 12.4 µM |
| Cc1nn(C)c2c(Nc3ccc(S(=O)(=O)N(C)C)cc3)nc(-c3ccc(F)cc3)nc12.Cl [E 43, 4-[5-(4-fluoro-phenyl)-1,3-dimethyl-1H-pyrazolo[4,3-d]pyrimidin-7-ylamino]-N,N-dimethyl-benzenesulfonamide hydrochloride] | 254 to 256 | – | 0.93 | – |
| COc1ccc(Nc2nc(-c3ccccc3)nc3c(C)nn(C)c23)cc1F [E 14, (1,3-dimethyl-5-phenyl-1H-pyrazolo[4,3-d]pyrimidin-7-yl)-(3-fluoro-4-methoxy-phenyl)-amine hydrochloride] | – | 4 | 0.43 | – |
| COc1ccc(Nc2nc(-c3ccccc3)nc3c(C)nn(C)c23)cc1Cl [E 13, (3-chloro-4-methoxy-phenyl)-(1,3-dimethyl-5-phenyl-1H-pyrazolo[4,3-d]pyrimidin-7-yl)-amine hydrochloride] | – | 1.5 | 0.38 | – |
| COc1ccc(Nc2nc(-c3ccc(F)cc3)cc3c2c(C)nn3C)cc1Cl [E 72, (3-chloro-4-methoxy-phenyl)-[6-(4-fluoro-phenyl)-1,3-dimethyl-1H-pyrazolo[4,3-c]pyridin-4-yl]-amine hydrochloride] | – | 3.8 | 1.3 | IC50 ([1]; Homo sapiens, Endothelial cell): 14 µM |
| Cc1nn(C)c2c(Nc3ccc(OC(F)(F)F)cc3)nc(-c3ccccc3)nc12.Cl [E 38, (1,3-dimethyl-5-phenyl-1H-pyrazolo[4,3-d]pyrimidin-7-yl)-(4-trifluoromethoxy-phenyl)-amine hydrochloride] | 174 to 176 | – | 0.23 | – |
| CCCc1nn(C)c2c(Nc3ccc(OC(F)(F)F)cc3)nc(-c3ccc(F)cc3)nc12.Cl [E 37, [5-(4-fluoro-phenyl)-1-methyl-3-propyl-1H-pyrazolo[4,3-d]pyrimidin-7-yl]-(4-trifluoromethoxy-phenyl)-amine hydrochloride] | 230 to 232 | – | 0.5 | – |
| Cc1nn(C)c2c(Nc3ccc(S(C)(=O)=O)cc3)nc(-c3ccc(F)cc3)nc12 [E 96, [5-(4-fluoro-phenyl)-1,3-dimethyl-1H-pyrazolo[4,3-d]pyrimidin-7-yl]-(4-methanesulfonyl-phenyl)-amine] | 216 to 218 | – | 1.37 | – |
| COc1ccc(Nc2nc(-c3cccs3)nc3c(C)nn(C)c23)cc1Cl.Cl [E 32, (3-chloro-4-methoxy-phenyl)-(1,3-dimethyl-5-thiophen-2-yl-1H-pyrazolo[4,3-d]pyrimidin-7-yl)-amine hydrochloride] | > 240 | – | 0.94 | – |
| COc1ccc(Nc2nc(-c3ccc(F)cc3)nc3c(C)nn(C)c23)cc1Cl.Cl [E 17, (3-chloro-4-methoxy-phenyl)-[5-(4-fluoro-phenyl)-1,3-dimethyl-1H-pyrazolo[4,3-d]pyrimidin-7-yl]-amine hydrochloride] | > 240 | – | – | inhibition at 1 µM [3]: 100% |
| COc1ccc(Nc2nc(-c3ccc(F)cc3)cc3c2c(C)nn3C)cc1F [E 73, (3-fluoro-4-methoxy-phenyl)-[6-(4-fluoro-phenyl)-1,3-dimethyl-1H-pyrazolo[4,3-c]pyridin-4-yl]-amine hydrochloride] | – | 4.1 | 0.9 | IC50 ([1]; Homo sapiens, Endothelial cell): 13.7 µM |
| Cc1nn(C)c2c(Nc3cccc(C(N)=O)c3)nc(-c3ccc(F)cc3)nc12.Cl [E 49, 3-[5-(4-fluoro-phenyl)-1,3-dimethyl-1H-pyrazolo[4,3-d]pyrimidin-7-ylamino]-benzamide hydrochloride] | 258 to 260 | 0.34 | – | IC50 ([1]; Homo sapiens, Endothelial cell): 0.61 µM |
| COc1ccc(Nc2nc(-c3ccc(F)cc3)nc3c2cnn3-c2ccccc2)cc1F [E 80, (3-fluoro-4-methoxy phenyl)-[6-(4-fluoro-phenyl)-1-phenyl-1H-pyrazolo[3,4-d]-pyrimidin-4yl]amine hydrochloride] | – | 5.4 | 0.46 | IC50 ([1]; Homo sapiens, Endothelial cell): 11.1 µM |
| Cc1nn(C)c2c(Nc3ccc4c(c3)OCO4)nc(-c3ccc(F)cc3)nc12.Cl [E 19, benzo[1,3]dioxol-5-yl-[5-(4-fluoro-phenyl)-1,3-dimethyl-1H-pyrazolo[4,3-d]pyrimidin-7-yl]-amine hydrochloride] | 230 to 232 | – | 0.45 | – |
| COc1ccc(Nc2nc(-c3cccs3)nc3c(C)nn(C)c23)cc1F.Cl [E 30, (1,3-dimethyl-5-thiophen-2-yl-1H-pyrazolo[4,3-d]pyrimidin-7-yl)-(3-fluoro-4-methoxy-phenyl)-amine hydrochloride] | 236 to 238 | – | 1.45 | – |
| Cc1nn(C)c2cc(-c3ccc(F)cc3)nc(Nc3ccc(S(C)(=O)=O)cc3)c12 [E 100, [6-(4-fluoro-phenyl)-1,3-dimethyl-1H-pyrazolo[4,3-c]pyridin-4-yl]-(4-methanesulfonyl-phenyl)-amine] | – | 0.48 | – | – |
| Cc1nn(C)c2c(Nc3ccc(C(F)(F)F)cc3)nc(-c3ccc(F)cc3)nc12.Cl [E 39, [5-(4-fluoro-phenyl)-1,3-dimethyl-1H-pyrazolo[4,3-d]pyrimidin-7-yl]-(4-trifluoromethyl-phenyl)-amine hydrochloride] | 250 to 252 | – | 0.33 | – |
| Cc1nn(C)c2cc(-c3ccc(F)cc3)nc(Nc3ccc(OC(F)(F)F)cc3)c12.Cl | 248 to 250 | – | – | – |
| CCCc1nn(C)c2c(Nc3cccc(C(F)(F)F)c3)nc(-c3ccc(F)cc3)nc12.Cl | 220 to 222 | – | – | – |
